Assay results as given in article PMC6751662, “Pharmacological and functional similarities of the human neuropeptide Y system in C. elegans challenges phylogenetic views on the FLP/NPR system” (Cell Communication and Signaling : CCS, 2019).

Legend:
Format in all cases: cell-based, C. elegans
NPR-3 [1] = molecular target: T1, NPR-3 (Caenorhabditis elegans, UniProt P90745); test: IP accumulation assay, endogenous Gαq + mock, NPR-3; settings: 1 h, HBSS + 20 mM LiCl, HEK293 receptor + empty vector, HTRF IP-One, mean of >=3 independent experiments
T1 construct: expressed in transfected cells; host or cells: HEK293
T1 sequence (P90745 1-376): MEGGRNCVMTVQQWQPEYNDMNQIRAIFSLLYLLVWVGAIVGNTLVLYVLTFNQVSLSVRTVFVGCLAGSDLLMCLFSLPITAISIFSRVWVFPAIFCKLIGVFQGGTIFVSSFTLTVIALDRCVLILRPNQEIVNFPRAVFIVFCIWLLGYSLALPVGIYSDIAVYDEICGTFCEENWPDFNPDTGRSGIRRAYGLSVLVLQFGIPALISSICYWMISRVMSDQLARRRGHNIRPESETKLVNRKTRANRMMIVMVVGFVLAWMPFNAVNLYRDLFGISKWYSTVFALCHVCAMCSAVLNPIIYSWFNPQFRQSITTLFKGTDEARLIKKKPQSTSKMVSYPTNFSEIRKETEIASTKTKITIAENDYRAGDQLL
Protocol: (§1) For measuring IP accumulation, HEK293 cells grown to 70–80% confluency in 6-well plates were transiently co-transfected using Metafectene Pro (2.5 μl/μg DNA; Biontex) with plasmids containing receptor and/or mock (empty pcDNA3.1) (for endogenous Gq-coupling) using 4 μg total DNA in a ratio of 3:1 following the manufacturer’s instructions. For testing Gα16- and GαΔ6qi4myr-coupling, plasmids encoding the corresponding Gα protein were co-transfected instead of mock. Gα16 is naturally promiscuous and stimulates the phospholipase C (PLC) pathway leading to IP production, while the exchange of the C-terminal four amino acids of Gαq for the corresponding residues of Gαi1 in the chimeric GαΔ6qi4myr confers the ability to couple to Gi/o protein-preferring receptors but still stimulate PLC, thus specifically redirecting downstream cellular signaling. 16 h post transfection, the cells were seeded into white 384-well plates at a density of 20,000 cells/well. Media was removed 24 h later and the cells were incubated with the indicated concentration of peptides for 1 h in HBSS + 20 mM LiCl. IP accumulation was measured with the HTRF-based IP-One Gq kit (Cisbio) on a microplate reader (Tecan Spark).
(§2) For in vitro activation, data is presented as mean ± SEM of at least three independent experiments conducted in technical triplicate. […]

NPR-1 [2] = molecular target: T2, NPR-1 (Caenorhabditis elegans, UniProt Q18534); test: cAMP reporter gene assay, Gs (no forskolin), NPR-1; design: host or cells: HEK293; settings: no forskolin, 4 h, transiently transfected HEK293, CRE-luciferase reporter, mean of >=3 independent experiments
T2 sequence (Q18534 1-457): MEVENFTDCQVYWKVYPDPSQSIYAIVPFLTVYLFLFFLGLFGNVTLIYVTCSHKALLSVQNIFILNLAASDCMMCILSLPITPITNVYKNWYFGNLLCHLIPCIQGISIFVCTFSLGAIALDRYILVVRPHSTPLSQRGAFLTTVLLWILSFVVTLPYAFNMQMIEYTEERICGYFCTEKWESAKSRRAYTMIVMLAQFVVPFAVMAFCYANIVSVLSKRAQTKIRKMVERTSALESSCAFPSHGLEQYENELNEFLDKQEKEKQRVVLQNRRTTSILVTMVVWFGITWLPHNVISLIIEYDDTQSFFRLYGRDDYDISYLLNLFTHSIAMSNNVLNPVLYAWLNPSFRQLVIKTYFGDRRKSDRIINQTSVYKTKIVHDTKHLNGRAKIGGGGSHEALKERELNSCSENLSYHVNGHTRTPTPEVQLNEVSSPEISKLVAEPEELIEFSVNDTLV
Protocol: (§3) Activation of Gs and Gi/o was assessed with a cAMP reporter gene assay. HEK293 cells grown to 70–80% confluency in 6-well plates were transiently co-transfected with vectors encoding the receptor and the cAMP reporter gene plasmid pGL4.29 [luc2P/CRE/Hygro] (Promega; 4 μg total, 1:1 ratio) using Metafectene Pro (3 μl/μg DNA; Biontex) following the manufacturer’s instructions. 16 h post transfection, the cells were seeded into white 384-well plates at a density of 20,000 cells/well. On the next day, the medium was removed and the cells were stimulated with 20 μl of peptide solution (or forskolin as positive control) in serum-free DMEM for 4 h. For measuring Gi/o activity, the peptide solutions additionally contained 1 μM forskolin to elevate cellular cAMP levels. After incubation, the luciferase substrate OneGlo in lysis buffer (Promega) was added and the luminescence was measured in a microplate reader Tecan Spark (Tecan). Data were analyzed with GraphPad Prism 5.03 and are shown as fold of basal or fold of forskolin in case of Gαi/o activity.
(§4) For in vitro activation, data is presented as mean ± SEM of at least three independent experiments conducted in technical triplicate. […] For the C. elegans NPRs, we considered the strongest response elicited by any of the peptides downstream of a particular receptor as the receptor’s maximal signal. This may or may not be the biological maximum that can be reached by the ‘true’ endogenous agonist. For the human receptors, the response to the established endogenous agonist reflected the maximal signal.

NPR-3 [3] = molecular target: T1, NPR-3; test: IP accumulation assay, co-transfected Gα16, NPR-3; settings: 1 h, HBSS + 20 mM LiCl, HEK293 receptor + Gα16, HTRF IP-One, mean of >=3 independent experiments
Protocol: as §1, §2

NPR-1 [4] = molecular target: T2, NPR-1; test: IP accumulation assay, co-transfected Gα16, NPR-1; design: expressed in transfected cells; host or cells: HEK293; settings: 1 h, HBSS + 20 mM LiCl, HEK293 receptor + Gα16, HTRF IP-One, mean of >=3 independent experiments
Protocol: as §1, §2

NPR-11 = molecular target: T3, NPR-11 (Caenorhabditis elegans, UniProt Q18179); test: cAMP reporter gene assay, Gs (no forskolin), NPR-11; settings: no forskolin, 4 h, transiently transfected HEK293, CRE-luciferase reporter, mean of >=3 independent experiments
T3 construct: expressed in transfected cells; host or cells: HEK293, transient
T3 sequence (Q18179 1-402): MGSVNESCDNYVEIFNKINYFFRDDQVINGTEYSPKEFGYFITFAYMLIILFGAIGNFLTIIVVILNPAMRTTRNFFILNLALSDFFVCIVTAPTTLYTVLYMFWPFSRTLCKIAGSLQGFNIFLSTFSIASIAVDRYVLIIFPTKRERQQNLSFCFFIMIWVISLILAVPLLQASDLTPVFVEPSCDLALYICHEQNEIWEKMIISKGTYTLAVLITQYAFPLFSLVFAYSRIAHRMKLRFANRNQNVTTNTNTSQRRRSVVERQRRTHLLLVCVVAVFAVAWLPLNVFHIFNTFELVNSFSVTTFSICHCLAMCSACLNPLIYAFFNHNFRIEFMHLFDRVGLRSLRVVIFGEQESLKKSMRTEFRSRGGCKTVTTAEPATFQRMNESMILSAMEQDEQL
Protocol: as §3, §4

[5] = 0.1 nM peptide (so in the source)

With “APKPKFIRF-NH2 [FLP-5-1, C. elegans FMRFamide-like peptide, C-terminally amidated, synthesized by SPPS]” the “IP assay endog. Gαq + mock, NPR-3” value (NPR-3 [1]; [5]) was 0.92 x-fold of basal, the “IP assay endog. Gαq + mock, NPR-3” value (NPR-3 [1]; 10 µM peptide) was 1.07 x-fold of basal and the “cAMP assay Gs, NPR-1” value (NPR-1 [2]; 0.1 µM peptide) was 1.12 x-fold of basal. The “cAMP assay Gs, NPR-1” value (NPR-1 [2]; 10 µM peptide) was 1.05 x-fold of basal, the “IP assay endog. Gαq + Gα16, NPR-3” value (NPR-3 [3]; [5]) was 0.93 x-fold of basal and the “IP assay endog. Gαq + Gα16, NPR-3” value (NPR-3 [3]; 10 µM peptide) was 0.81 x-fold of basal. The “IP assay endog. Gαq + Gα16, NPR-1” value (NPR-1 [4]; [5]) was 0.90 x-fold of basal, the “IP assay endog. Gαq + Gα16, NPR-1” value (NPR-1 [4]; 10 µM peptide) was 0.81 x-fold of basal and the “cAMP assay Gs, NPR-11” value (NPR-11; 0.1 µM peptide) was 0.70 x-fold of basal. The “cAMP assay Gs, NPR-11” value (NPR-11; 10 µM peptide) was 0.69 x-fold of basal.
